In patent US6610687B1, “Benzofuranylsulfonates” (Bayer Aktiengesellschaft, priority 1999, dated 2003):

Assays:
[1] = test system: human PMN (neutrophils); experiment: Inhibition of FMLP-stimulated production of superoxide radical anions; assay type: cell-based; conditions: Neutrophil, read-out: IC50 O2^−
Protocol: 1. Preparation of Human PMN
Blood was taken from healthy subjects by venous puncture and neutrophils were purified by dextran sedimentation and resuspended in the buffered medium.
2. Inhibition of FMLP-stimulated Production of Superoxide Racidal Anions.
Neutrophils (2.5×10^5 ml^−1) were mixed with cytochrome C (1.2 mg/ml) in the wells of a microtitre plate. Compounds according to the invention were added in dimethyl sulphoxide (DMSO). Compound concentration ranged from 2.5 nM to 10 μM, the DMSO concentration was 0.1% v/v in all wells. After addition of cytochalasin b (5 μg×ml^−1) the plate was incubated for 5 min at 37° C. Neutrophils were then stimulated by addition of 4×10^−8 M FMLP and superoxide generation measured as superoxide dismutase inhibitable reduction of cytochrome C by monitoring the OD550 in a microtitre plate spectrophotometer, e.g. a thermomax microtitre plate spectrophotometer. Initial rates were calculated using a kinetic calculation programme such as a softmax programme. Blank wells contained 200 units of superoxide dismutase.
The inhibition of superoxide production was calculated as follows: [formula]
Rx=Rate of the well containing the compound according to the invention.
Ro=Rate in the control well.
Rb=Rate in the superoxide dismutase containing blank well.

[2] = biological target: PMN phosphodiesterase (PDE IV); experiment: Assay of PMN phosphodiesterase; assay type: biochemical; conditions: particulate fraction from human PMN, treated with sodium vanadate/glutathione
Protocol: 4. Assay of PMN Phosphodiesterase
This was performed as a particulate fraction from human PMN essentially as described by Souness and Scott (Biochem. J. 291, 389-395, 1993). Particulate fractions were treated with sodium vanadate/glutathione as described by the authors to express the descrete stereospecific site on the phosphodiesterase enzyme.

| Structure (SMILES) | IC50 [1] [nM] | IC50 [2] [nM] |
| --- | --- | --- |
| CC(=O)Nc1ccc(S(=O)(=O)Oc2ccc3c(NC(N)=O)c(C(=O)c4ccc(Cl)cc4)oc3c2)cc1 [Example 13] | 65 | 21 |
| NC(=O)Nc1c(C(=O)c2ccc(Cl)cc2Cl)oc2cc(OS(=O)(=O)c3ccc(-c4ccccn4)s3)ccc12 [Example 21] | 20 | 40 |
| Cc1nn(C)c(Cl)c1S(=O)(=O)Oc1ccc2c(NC(N)=O)c(C(=O)c3ccc(F)cc3F)oc2c1 [Example 24] | 60 | 130 |
| Cc1ccc(C(=O)c2oc3cc(OS(=O)(=O)c4cn(C)cn4)ccc3c2NC(N)=O)c(C)c1 [Example 36] | 7 | 1 |
| CN(C)S(=O)(=O)Oc1ccc2c(NC(N)=O)c(C(=O)c3cc(Cl)ccc3Cl)oc2c1 [Example 46] | 35 | 6 |
| NC(=O)Nc1c(C(=O)c2ccc(Cl)cc2Cl)oc2cc(OS(=O)(=O)Cc3ccc(Cl)nc3)ccc12 [Example 47] | 20 | 33 |
| NC(=O)Nc1c(C(=O)c2ccc(Cl)cc2Cl)oc2cc(OS(=O)(=O)c3cccc4cccnc34)ccc12 [Example 49] | 1 | 1 |
